According to patent publication US6911220B1, “Allogeneic and xenogeneic transplantation” (The General Hospital Corporation, priority 1992, dated 2005):

Tested on: pig kidney transplants in Cynomolgus monkeys
Assay: Pig to monkey kidney xenotransplantation

N=C(N)NCCCCCCC(=O)NC(O)C(=O)NCCCCNCCCN (stereo not shown) [DSG, 15-deoxyspergualin]
suppression of natural antibody function (6 mg/kg/day, i.v., pig to cynomolgus kidney transplants): useful in suppressing natural antibody function | usefulness of combination treatment (cyclosporine 15 mg/kg/day 28 days + 15-deoxyspergualin 6 mg/kg/day two weeks + pig SCF and IL-3 10 μg/kg/day i.v. two weeks, pig grafts and stem cells): useful | day until which the pig kidney functioned (splenectomy + pig liver perfusion, cyclosporine 15 mg/kg/day iv and DSG 6 mg/kg/day iv post-transplant, removed on day 8): 7 days | IgM natural antibodies in serum after liver perfusion (with cyclosporine 15 mg/kg/day iv and DSG 6 mg/kg/day iv): did not appear in the serum thereafter
